# Values of other authors as cited in patent US20040033957A1, “FAP-activated anti-tumor prodrugs” (Boehringer Ingelheim Pharma GmbH & Co. KG, priority 2002, published 2004).
# Where a SMILES comes first, the peptide text is derived from it. The star is where a group is joined. AFC = O=c1cc(C(F)(F)F)c2ccc(N*)cc2o1
# Tests used:
# FAPα dimers = molecular target: T1, FAPα dimers (Homo sapiens, UniProt Q12884); conditions: membrane overlay assay
# T1 sequence (Q12884 1-760): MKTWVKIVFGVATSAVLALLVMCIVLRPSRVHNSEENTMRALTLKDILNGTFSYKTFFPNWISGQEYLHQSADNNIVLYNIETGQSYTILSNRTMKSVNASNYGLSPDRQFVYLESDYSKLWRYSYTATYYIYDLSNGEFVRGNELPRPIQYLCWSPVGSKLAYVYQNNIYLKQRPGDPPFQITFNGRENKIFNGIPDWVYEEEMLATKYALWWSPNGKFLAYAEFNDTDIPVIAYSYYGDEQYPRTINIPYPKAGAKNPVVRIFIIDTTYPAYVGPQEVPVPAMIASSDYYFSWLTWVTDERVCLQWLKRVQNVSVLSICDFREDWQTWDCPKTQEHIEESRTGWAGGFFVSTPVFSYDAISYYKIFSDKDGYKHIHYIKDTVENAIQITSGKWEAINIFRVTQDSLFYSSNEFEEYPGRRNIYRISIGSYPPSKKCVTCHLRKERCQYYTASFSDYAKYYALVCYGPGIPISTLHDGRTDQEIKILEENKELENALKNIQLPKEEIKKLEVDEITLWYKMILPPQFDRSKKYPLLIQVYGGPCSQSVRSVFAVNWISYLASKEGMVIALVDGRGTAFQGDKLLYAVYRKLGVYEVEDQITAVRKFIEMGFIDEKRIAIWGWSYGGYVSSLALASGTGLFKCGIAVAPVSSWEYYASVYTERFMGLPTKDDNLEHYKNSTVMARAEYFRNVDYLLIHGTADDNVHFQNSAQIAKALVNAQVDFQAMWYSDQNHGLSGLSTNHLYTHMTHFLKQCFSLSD
# xenograft tumor = conditions: mouse xenograft tumor models
# [1] = directly in the circulation, humans
Compound,cleavage by FAPα dimers (FAPα dimers),efficacy as compared to doxorubicin (xenograft tumor),tolerability (humans),"myelosuppression (patients, correlated with AUC of released doxorubicin)",fraction of the prodrug metabolized to free doxorubicin [1]
C[C@H](N)C(=O)N1CCC[C@H]1C(=O)Nc1ccc2c(C(F)(F)F)cc(=O)oc2c1 [Ala-Pro-7-amino-4-trifluoromethyl coumarin] (H-Ala-Pro-{AFC}),able to cleave,,,,
NCCCC[C@H](N)C(=O)N1CCC[C@H]1C(=O)Nc1ccc2c(C(F)(F)F)cc(=O)oc2c1 [Lys-Pro-7-amino-4-trifluoromethyl coumarin] (H-Lys-Pro-{AFC}),able to cleave,,,,
NCC(=O)N1CCC[C@H]1C(=O)Nc1ccc2c(C(F)(F)F)cc(=O)oc2c1 [Gly-Pro-7-amino-4-trifluoromethyl coumarin] (H-Gly-Pro-{AFC}),able to cleave,,,,
COc1cccc2c1C(=O)c1c(O)c3c(c(O)c1C2=O)C[C@@](O)(C(=O)CO)C[C@@H]3O[C@H]1C[C@H](NC(=O)[C@@H](N)CC(C)C)[C@H](O)[C@H](C)O1 [N-L-leucyl-doxorubicin],,improved efficacy,comparably poor tolerability,Myelosuppression was seen,roughly half
